{
  "source": "patent US7071231B2",
  "about": "“Naphthalene ureas as glucose uptake enhancers” (Telik, Inc., priority 1999, dated 2006)",
  "note": "Where a name gives a salt, the structure may show the parent alone.",
  "data": [
    {"test_system": "3T3 L1 fibroblasts", "assay": "Glucose transport activity assay (14C-2-deoxy-D-glucose uptake)", "format": "cell-based", "settings": "EC (effective concentration) for increase in glucose transport; 14C-2-deoxy-D-glucose, 3T3 L1 cells; read-out: Concentration (μM) to reach >150% activity of vehicle control", "experimental": "(§1) Glucose Transport Activity Assay.\n(§2) Stimulation of the insulin receptor leads to the transport of glucose from the blood into cells, thus modulating blood glucose levels. 3T3 L1 fibroblasts (ATCC) were grown in Dulbecco's modified Eagle's medium (DMEM) with 10% fetal bovine serum (FBS). The cells were plated at a density of 3×10^4 cells/well in 24-well plates. Two days after confluence was reached, the cells were treated for 3 days with 0.5 mM isobutylmethylxanthine (IBMX), 1 μM dexamethasone, and 1.7 μM insulin. The cells were then transferred to DMEM with 10% FBS and supplemented with 1.7μM insulin for 2 more days. The cells were maintained in DMEM with 10% FBS for an additional 4 days. Finally the cells were serum-starved overnight in 0.1% bovine serum albumin (BSA) in DMEM.\n(§3) The following day, the medium was replaced with 150 mM NaCl, 1.7 mM KCl, 0.9 mM CaCl2, K2HPO4 (pH 7.4) to which were added either the experimental compounds or their vehicle (DMSO). Insulin or its vehicle (0.01% BSA) was diluted in the assay buffer (containing test compound or vehicle, respectively) to final concentration of […]. After incubation for 30 min at 37° C., 5 μCi/ml ^14C-2-deoxy-D-glucose was added, and the incubation was continued for additional 30 min at 37° C. The cells were then washed 3 times with ice-cold PBS/20 mM glucose and lysed in 250 μl of lysis buffer (50 mM HEPES pH 7.6, 1% Triton X-100) for 30 min at room temperature. Radioactivity in the lysate was quantified by scintillation counting.\n(§4) Once ^14C-2-deoxy-D-glucose is transported into the cell, it is not released. Glucose transport is, therefore, proportional to the amount of radioactivity in the lysate. The concentration of compound necessary to produce an increase in glucose transport to greater than 150% of the vehicle control (generally representing the sum of the standard deviation of the vehicle control plus the largest standard deviation of a test sample) was recorded as the EC (effective concentration). Shown in FIG. 3 is glucose uptake by cells at various concentrations when treated with Compound 13 and Compound 15.", "units": {"EC (150% of vehicle control)": "µM"}, "values": [
      {"smiles": "CN=C(Nc1ccc2ccc(NS(=O)(=O)c3ccc(Cl)c(C(=O)OC)c3)cc2c1)Nc1ccc2ccc(NS(=O)(=O)c3ccc(Cl)c(C(=O)OC)c3)cc2c1", "note": "[Compound 161, methyl 5-[({7-[((1E)-2-aza-1-{[7-({[4-chloro-3-(methoxycarbonyl)phenyl]sulfonyl}amino)(2-naphthyl)]amino}prop-1-enyl)amino](2-naphthyl)}amino)sulfonyl]-2-chlorobenzoate]", "EC (150% of vehicle control)": ">32"},
      {"smiles": "CN=C(Nc1ccc2ccc(NS(=O)(=O)c3ccc(Cl)c(C(=O)O)c3)cc2c1)Nc1ccc2ccc(NS(=O)(=O)c3ccc(Cl)c(C(=O)O)c3)cc2c1", "note": "[Compound 162, 5-({[7-({(1E)-2-aza-1-[(7-{[(3-carboxy-4-chlorophenyl)sulfonyl]amino}(2-naphthyl))amino]prop-1-enyl}amino)(2-naphthyl)]amino}sulfonyl)-2-chlorobenzoic acid]", "EC (150% of vehicle control)": ">32"},
      {"smiles": "COC(=O)c1cc(S(=O)(=O)Nc2ccc3ccc(NC(=NC#N)Nc4ccc5ccc(NS(=O)(=O)c6ccc(Cl)c(C(=O)OC)c6)cc5c4)cc3c2)ccc1Cl", "note": "[Compound 165, methyl 5-[({7-[((1E)-2-aza-1-{[7-({[4-chloro-3-(methoxycarbonyl)phenyl]sulfonyl}amino)(2-naphthyl)]amino}-2-cyanovinyl)amino](2-naphthyl)}amino)sulfonyl]-2-chlorobenzoate]", "EC (150% of vehicle control)": 3.2},
      {"smiles": "N#CN=C(Nc1ccc2ccc(NS(=O)(=O)c3ccc(Cl)c(C(=O)O)c3)cc2c1)Nc1ccc2ccc(NS(=O)(=O)c3ccc(Cl)c(C(=O)O)c3)cc2c1", "note": "[Compound 166, 5-({[7-({(1E)-2-aza-1-[(7-{[(3-carboxy-4-chlorophenyl)sulfonyl]amino}(2-naphthyl))amino]-2-cyanovinyl}amino)(2-naphthyl)]amino}sulfonyl)-2-chlorobenzoic acid]", "EC (150% of vehicle control)": 3.2},
      {"smiles": "C=CCN=C(Nc1ccc2ccc(NS(=O)(=O)c3ccc(Cl)c(C(=O)OC)c3)cc2c1)Nc1ccc2ccc(NS(=O)(=O)c3ccc(Cl)c(C(=O)OC)c3)cc2c1", "note": "[Compound 167, methyl 5-[({7-[((1E)-2-aza-1-{[7-({[4-chloro-3-(methoxycarbonyl)phenyl]sulfonyl}amino)(2-naphthyl)]amino}penta-1,4-dienyl)amino](2-naphthyl)}amino)sulfonyl]-2-chlorobenzoate]", "EC (150% of vehicle control)": ">32"},
      {"smiles": "C=CCN=C(Nc1ccc2ccc(NS(=O)(=O)c3ccc(Cl)c(C(=O)O)c3)cc2c1)Nc1ccc2ccc(NS(=O)(=O)c3ccc(Cl)c(C(=O)O)c3)cc2c1", "note": "[Compound 168, 5-({[7-({(1E)-2-aza-1-[(7-{[(3-carboxy-4-chlorophenyl)sulfonyl]amino}(2-naphthyl))amino]penta-1,4-dienyl}amino)(2-naphthyl)]amino}sulfonyl)-2-chlorobenzoic acid]", "EC (150% of vehicle control)": ">32"}
    ]},
    {"test_system": "3T3 L1 fibroblasts", "assay": "Glucose transport activity assay (14C-2-deoxy-D-glucose uptake)", "format": "cell-based", "settings": "Mus musculus, 3T3-L1, read-out: Concentration (μM) to reach >150% activity of vehicle control", "experimental": "as §1, §2, §3, §4", "units": {"EC (150% of vehicle control)": "µM"}, "values": [
      {"smiles": "CN(c1cccc(S(=O)(=O)O)c1)S(=O)(=O)c1ccc2ccc(NC(=O)Nc3ccc4ccc(S(=O)(=O)N(C)c5cccc(S(=O)(=O)O)c5)cc4c3)cc2c1", "note": "[Compound 103, 3-{methyl[(7-{[(7-{[methyl(3-sulfophenyl)amino]sulfonyl}(2-naphthyl))amino]-carbonylamino}-(2-naphthyl))sulfonyl]amino}benzenesulfonic acid dipotassium salt]", "EC (150% of vehicle control)": 3.2}
    ]},
    {"test_system": "3T3 L1 fibroblasts", "assay": "Glucose transport activity assay (14C-2-deoxy-D-glucose uptake)", "format": "cell-based", "settings": "Mus musculus; EC (effective concentration) for increase in glucose transport; 14C-2-deoxy-D-glucose, 3T3 L1 cells; read-out: Concentration (μM) to reach >150% activity of vehicle control", "experimental": "as §1, §2, §3, §4", "units": {"EC (150% of vehicle control)": "µM"}, "values": [
      {"smiles": "O=C(Nc1ccc2ccc(S(=O)(=O)Nc3ccc(Cl)c(CO)c3)cc2c1)Nc1ccc2ccc(S(=O)(=O)Nc3ccc(Cl)c(CO)c3)cc2c1", "note": "[Compound 85, N-[7-({[4-chloro-3-(hydroxymethyl)phenyl]amino}sulfonyl)(2-naphthyl)]{[7-({[4-chloro-3-(hydroxymethyl)phenyl]amino}sulfonyl)(2-naphthyl)]amino}carboxamide]", "EC (150% of vehicle control)": 32},
      {"smiles": "O=C(Nc1ccc2c(O)cc(S(=O)(=O)Nc3cccc(C(F)(F)F)c3)cc2c1)Nc1ccc2c(O)cc(S(=O)(=O)Nc3cccc(C(F)(F)F)c3)cc2c1", "note": "[Compound 88, N-[5-hydroxy-7-({[3-(trifluoromethyl)phenyl]amino}sulfonyl)(2-naphthyl)]{[5-hydroxy-7-({[3-(trifluoromethyl)phenyl]amino}sulfonyl)(2-naphthyl)]amino}carboxamide]", "EC (150% of vehicle control)": "> 32"},
      {"smiles": "O=C(Nc1ccc2ccc(S(=O)(=O)O)cc2c1)Nc1ccc2ccc(S(=O)(=O)Nc3ccc(Cl)c(S(=O)(=O)O)c3)cc2c1", "note": "[Compound 90, 7-{[(7-{[(4-chloro-3-sulfophenyl)amino]sulfonyl}-2-naphthyl)amino]carbonylamino}naphthalene-2-sulfonic acid]", "EC (150% of vehicle control)": 3.2},
      {"smiles": "O=C(Nc1ccc2ccc(S(=O)(=O)Nc3ccc(Cl)c(S(=O)(=O)O)c3)cc2c1)Nc1ccc2ccc(S(=O)(=O)Nc3ccc(Cl)c(S(=O)(=O)O)c3)cc2c1", "note": "[Compound 91, 2-chloro-5-{[(7-{[(7-{[(4-chloro-3-sulfophenyl)amino]sulfonyl}(2-naphthyl))amino]carbonylamino}(2-naphthyl))sulfonyl]amino}benzenesulfonic acid]", "EC (150% of vehicle control)": 3.2},
      {"smiles": "O=C(Nc1ccc2ccc(S(=O)(=O)Nc3cccc(S(=O)(=O)O)c3)cc2c1)Nc1ccc2ccc(S(=O)(=O)Nc3cccc(S(=O)(=O)O)c3)cc2c1", "note": "[Compound 114, 3-{[(7-{[N-(7-{[(3-sulfophenyl)amino]sulfonyl}-2-naphthyl)carbamoyl]amino}-2-naphthyl)sulfonyl]amino}benzenesulfonic acid disodium salt]", "EC (150% of vehicle control)": 3.2},
      {"smiles": "O=C(Nc1ccc2ccc(C(=O)Nc3cccc(C(=O)O)c3)cc2c1)Nc1ccc2ccc(C(=O)Nc3cccc(C(=O)O)c3)cc2c1", "note": "[Compound 116, 3-({7-[({7-[N-(3-carboxyphenyl)carbamoyl]-2-naphthyl}amino)carbonylamino]-2-naphthyl}carbonylamino)benzoic acid]", "EC (150% of vehicle control)": "> 32"},
      {"smiles": "O=C(Nc1ccc2ccc(NS(=O)(=O)c3cccc(C(=O)O)c3)cc2c1)Nc1ccc2ccc(NS(=O)(=O)c3cccc(C(=O)O)c3)cc2c1", "note": "[Compound 129, 3-{[(7-{[N-(7-{[(3-carboxyphenyl)sulfonyl]amino}-2-naphthyl)carbamoyl]amino}-2-naphthyl)amino]sulfonyl}benzoic acid]", "EC (150% of vehicle control)": 32},
      {"smiles": "COC(=O)c1cc(NS(=O)(=O)c2ccc3ccc(NC(=S)Nc4ccc5ccc(S(=O)(=O)Nc6ccc(Cl)c(C(=O)OC)c6)cc5c4)cc3c2)ccc1Cl", "note": "[Compound 157, methyl 2-chloro-5-[({7-[({[7-({[4-chloro-3-(methoxycarbonyl)phenyl]amino}sulfonyl)(2-naphthyl)]amino}thioxomethyl)amino](2-naphthyl)}sulfonyl)amino]benzoate]", "EC (150% of vehicle control)": "> 32"},
      {"smiles": "COC(=O)c1cc(NS(=O)(=O)c2ccc3ccc(/N=C(/Nc4ccc5ccc(S(=O)(=O)Nc6ccc(Cl)c(C(=O)OC)c6)cc5c4)SC)cc3c2)ccc1Cl", "note": "[Compound 158, methyl 5-({[7-((1Z)-1-aza-2-{[7-({[4-chloro-3-(methoxycarbonyl)phenyl]amino}sulfonyl)(2-naphthyl)]amino}-2-methylthiovinyl)(2-naphthyl)]sulfonyl}amino)-2-chlorobenzoate]", "EC (150% of vehicle control)": "> 32"},
      {"smiles": "O=C(Nc1ccc2cc(S(=O)(=O)Nc3cccc(S(=O)(=O)O)c3)ccc2c1)Nc1ccc2cc(S(=O)(=O)Nc3cccc(S(=O)(=O)O)c3)ccc2c1", "note": "[Compound 169, 3-{[(6-{[(6-{[(3-sulfophenyl)amino]sulfonyl}-2-naphthyl)amino]carbonylamino}-2-naphthyl)sulfonyl]amino}benzenesulfonic acid]", "EC (150% of vehicle control)": 3.2}
    ]}
  ]
}
